# According to US10988457B2, “TLR inhibitors” (Insilico Medicine IP Limited, priority 2019, dated 2021):
# Read-outs that look alike come from different tables or passages of the source.
# Key:
# TLR7/8 [1] = experiment: TLR7/8 Inhibition Assay IC50 in human PBMC's, cytokine release after CL075 stimulation (Luminex); assay type: cell-based; conditions: human PBMC's from one donor, CL075 2 μg/mL, 24 hours, eight concentrations 0.01-100 μM
# Procedure: (§1) Cryopreserved human PBMC's were drip-thawed. Cells were diluted to the appropriate density (1×10^5 per well) and seeded into 96-well polypropylene plates with 150 μL per well of culture medium (RPMI 1640, 10% heat-inactivated FBS, 1% penicillin/streptomycin, 2 mM L-glutamine) for compound test wells.
# Consequently, the final DMSO vehicle concentration in the assay was from 1 to 0.5%.
# Than plates were centrifuged at 200×g for 10 minutes. […] Cytokine levels in each sample were determined using Luminex methodology, per the manufacturer's protocol.
# The interpolated data were then normalized to the vehicle or unstimulated control.
# Outlier calculation was performed using the Grubbs maximum normed residual test.
# Eight test compounds were evaluated for their ability to inhibit the TLR7/8 in PBMC's from one human donor following incubation of 24 hours.
# TLR7/8 [2] = conditions: reference compound 100 nM, CL075 2 μg/mL, human PBMC's, 24 hours
# Procedure: Namely, in the present experiment their ability was evaluated to inhibit TLR7/8 in human PBMC's, as measured by the release of specific cytokines. The following cytokines were measured for a complete cytokine response profile (no dilution of samples): IL-1β, IL-6, IL-12p40, TNFα and IFNα.
# Levels of each cytokine induction were interpolated from standard curves using a 5-parameter non-linear regression analysis, where y=(A+((B−A)/(1+(((B−E)/(E−A))*((x/C)^D))))). The interpolated data were then normalized to the vehicle control. Percent of control (PoC) was also calculated using the formula, PoC=(test sample/positive vehicle control)×100.
# as §1, with “Fetal Bovine Serum (FBS),” for “FBS,”, “wells. For the control wells, cells (1×10^5 per well) were plated in 150 μL per well of culture medium.” for “wells.”
# Cells were incubated at 37° C., 5% CO2 for 1 hour prior to the addition of test compounds or controls.
# Test compounds were solubilized in DMSO to make 20× stock solutions, then diluted further with cell culture medium.
# Test compounds were added to the PBMC's in volumes of 10 μL and incubated for 1 hour at 37° C., 5% CO2. Compounds were tested in duplicates at final assay concentrations of 10 μM.
# Plates were incubated at 37° C., 5% CO2 for 24 hours. Plates were centrifuged at 200×g for 10 minutes. Cell culture supernatants were collected and stored at −80° C. until needed for analysis.
# Harvested cell culture supernatants were measured for IL-1β, IL-6, IL-12p40, TNFα and IFNα release to assess dual TLR7/8 inhibition.
# [3] = read-out: IC50 levels for test compounds, IFNα
# [4] = read-out: IC50 levels for test compounds, IL-1β
# [5] = read-out: IC50 levels for test compounds, L-6
# [6] = read-out: IC50 levels for test compounds, L-12p40
# [7] = read-out: IC50 levels for test compounds, TNFα
SMILES,IC50 (TLR7/8 [1]; [3]) [µM],IC50 (TLR7/8 [1]; [4]) [µM],IC50 (TLR7/8 [1]; [5]) [µM],IC50 (TLR7/8 [1]; [6]) [µM],IC50 (TLR7/8 [1]; [7]) [µM],"TLR7/8 Inhibition, IFNα (POC %) (TLR7/8 [2]) [%]","TLR7/8 Inhibition, IL-1β (POC %) (TLR7/8 [2]) [%]","TLR7/8 Inhibition, IL-6 (POC %) (TLR7/8 [2]) [%]","TLR7/8 Inhibition, IL-12p40 (POC %) (TLR7/8 [2]) [%]","TLR7/8 Inhibition, TNFα (POC %) (TLR7/8 [2]) [%]"
COc1ccc2c(c1)CCN(CCNC(=O)C1CCCN(c3ccc(C#N)cc3F)C1)C2 (stereo not drawn) [Compound 25],≤ 10,> 20,≤ 10,10 to 20,> 20,,,,,
N#Cc1ccc(N2CCCC(C(=O)NCCN3CCc4ccccc43)C2)c(F)c1 (stereo not drawn) [Compound 15],> 20,≤ 10,> 20,10 to 20,> 20,,,,,
"C[C@@H]1C[C@H]2[C@@H]3CCC4=CC(=O)C=C[C@]4(C)[C@@]3(F)[C@@H](O)C[C@]2(C)[C@@]1(O)C(=O)CO [Dexamethasone, dexamethasone]",,,,,,26.1,26.8,34.7,34.2,95.2
COc1ccc2c(c1)CCN(CCNC(=O)C1CCCN(c3ccc(C#N)cc3)C1)C2 (stereo not drawn) [Compound 24],≤ 10,> 20,> 20,10 to 20,> 20,,,,,
COc1ccc2c(c1)CCN(CCCNC(=O)C1CCN(c3ccc(C#N)cc3)CC1)C2 [Compound 26],≤ 10,> 20,> 20,10 to 20,≤ 10,,,,,
"COc1ccc2c(c1)CCN(CCNC(=O)C1CCN(c3ccc(C(F)(F)F)cn3)CC1)C2 [Compound 22, N-(2-(6-methoxy-3,4-dihydroisoquinolin-2(19)-yl)ethyl)-1-(5-(trifluoromethyl)pyridin-2-yl)piperidine-4-carboxamide]",≤ 10,> 20,> 20,> 20,> 20,,,,,
